Data taken from ChEMBL document CHEMBL1153173, “Oxygenated analogues of UK-396082 as inhibitors of activated thrombin activatable fibrinolysis inhibitor” (Bioorg Med Chem Lett, 2010).

How the values were obtained:
Carboxypeptidase B2 = molecular target: T1, Carboxypeptidase B2 (Homo sapiens, UniProt Q96IY4); assay: Inhibition of active form of human recombinant TAFI assessed as substrate turnover every 15 seconds for 30 mins
T1 sequence (Q96IY4 whole entry): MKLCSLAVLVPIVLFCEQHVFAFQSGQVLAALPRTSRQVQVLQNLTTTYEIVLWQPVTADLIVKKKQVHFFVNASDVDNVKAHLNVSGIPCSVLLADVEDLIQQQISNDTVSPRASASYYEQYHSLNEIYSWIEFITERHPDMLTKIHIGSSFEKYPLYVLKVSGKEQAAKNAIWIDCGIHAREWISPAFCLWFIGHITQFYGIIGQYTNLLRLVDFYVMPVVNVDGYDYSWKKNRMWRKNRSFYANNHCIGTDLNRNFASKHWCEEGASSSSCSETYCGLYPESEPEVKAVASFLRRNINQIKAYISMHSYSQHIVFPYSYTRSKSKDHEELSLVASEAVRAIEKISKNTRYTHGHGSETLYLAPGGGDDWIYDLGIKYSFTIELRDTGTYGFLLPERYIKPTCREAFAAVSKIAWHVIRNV

Carboxypeptidase B = molecular target: T2, Carboxypeptidase B (Homo sapiens, UniProt P15086); assay: Inhibition of human pancreatic carboxypeptidase B
T2 sequence (P15086 whole entry): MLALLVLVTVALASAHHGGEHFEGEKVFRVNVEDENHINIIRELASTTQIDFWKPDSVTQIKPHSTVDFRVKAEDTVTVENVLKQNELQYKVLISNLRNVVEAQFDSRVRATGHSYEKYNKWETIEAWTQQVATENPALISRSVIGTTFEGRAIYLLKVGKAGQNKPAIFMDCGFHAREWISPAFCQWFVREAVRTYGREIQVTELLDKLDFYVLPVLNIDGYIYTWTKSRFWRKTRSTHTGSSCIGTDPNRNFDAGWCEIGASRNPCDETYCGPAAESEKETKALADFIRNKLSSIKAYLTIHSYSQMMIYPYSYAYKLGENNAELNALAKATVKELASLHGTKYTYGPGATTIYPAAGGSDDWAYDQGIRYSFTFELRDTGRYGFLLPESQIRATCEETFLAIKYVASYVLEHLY

[1] = Clearance in rat at 2 mg/kg, iv; type: ADME, organism-based; set-up: dose 2 mg/kg, route intravenous; conditions: in vivo
[2] = Volume of distribution in rat at 2 mg/kg, iv; type: ADME, organism-based; set-up: dose 2 mg/kg, route intravenous; conditions: in vivo
[3] = Half life in rat at 2 mg/kg, iv; type: ADME, organism-based; set-up: dose 2 mg/kg, route intravenous; conditions: in vivo
[4] = Half life in rat at 5 mg/kg, po; type: ADME, organism-based; set-up: dose 5 mg/kg, route oral; conditions: in vivo
Plasma = assay: Plasma protein binding in rat; type: ADME, cell-free
[5] = Oral bioavailability in rat at 5 mg/kg; type: ADME, organism-based; conditions: in vivo
[6] = Clearance in human at 10 mg/kg, iv; type: ADME, organism-based; set-up: dose 10 mg/kg, route intravenous; conditions: in vivo
[7] = Volume of distribution in human at 10 mg/kg, iv; type: ADME, organism-based; set-up: dose 10 mg/kg, route intravenous; conditions: in vivo
[8] = Half life in human at 10 mg/kg, iv; type: ADME, organism-based; set-up: dose 10 mg/kg, route intravenous; conditions: in vivo

| SMILES | Ki (Carboxypeptidase B2) [nM] | Ki (Carboxypeptidase B) [nM] | further results |
| --- | --- | --- | --- |
| CCCn1cnc(C[C@H](NCCN)C(=O)O)c1 | 150 | 1160 | – |
| NCCO[C@@H](Cc1cn(-c2ccccc2)cn1)C(=O)O | 3.5 | 27 | – |
| Cc1ccccc1-n1cnc(CC(OCCN)C(=O)O)c1 (racemic) | 65 | 2720 | – |
| C[C@H](CN)O[C@@H](Cc1cn(-c2ccccn2)cn1)C(=O)O | 5.8 | 265 | – |
| NCCO[C@@H](Cc1cn(CCC2CCCCC2)cn1)C(=O)O | 8.2 | 27 | – |
| C[C@H](CN)O[C@@H](Cc1cn(-c2ccccc2)cn1)C(=O)O | 7.5 | 240 | – |
| CCCn1cnc(C[C@H](OCCN)C(=O)O)c1 | 6.7 | 238 | clearance [1]: 13.4 mL/min/kg; Vd [2]: 3.1 L/kg; half-life [3]: 2.7 h; half-life [4]: 2.1 h; PPB (Plasma): 0%; bioavailability [5]: 9.8% |
| CCCn1cnc(C[C@@H](OCCN)C(=O)O)c1 | > 10000 | > 10000 | – |
| CCCCn1cnc(CC(OCCN)C(=O)O)c1 (racemic) | 15 | 360 | – |
| CC(C)(C)c1ccc(-n2cnc(C[C@H](OCCN)C(=O)O)c2)cc1 | 5.7 | 49 | – |
| CCCn1cnc(CC(OCCNC)C(=O)O)c1 (racemic) | 407 | > 10000 | – |
| CCCn1cnc(C[C@H](CCCN)C(=O)O)c1 [UK-396,082] | 16 | 206 | clearance [1]: 10.2 mL/min/kg; Vd [2]: 1.9 L/kg; half-life [3]: 2.1 h; half-life [4]: 2.4 h; PPB (Plasma): 0%; bioavailability [5]: 10.6%; clearance [6]: 1.5 mL/min/kg; Vd [7]: 0.5 L/kg; half-life [8]: 4 h |
